We go through 1 compound from patent EP1056778B1, “G PROTEIN-COUPLED RECEPTOR ANTAGONISTS” (priority 1998, dated 1999).

The test deals with T1, CCKAR (Rattus norvegicus, UniProt P30551).
T1 construct: expressed in transfected cells; host or cells: CHO cells
T1 sequence (P30551 1-444): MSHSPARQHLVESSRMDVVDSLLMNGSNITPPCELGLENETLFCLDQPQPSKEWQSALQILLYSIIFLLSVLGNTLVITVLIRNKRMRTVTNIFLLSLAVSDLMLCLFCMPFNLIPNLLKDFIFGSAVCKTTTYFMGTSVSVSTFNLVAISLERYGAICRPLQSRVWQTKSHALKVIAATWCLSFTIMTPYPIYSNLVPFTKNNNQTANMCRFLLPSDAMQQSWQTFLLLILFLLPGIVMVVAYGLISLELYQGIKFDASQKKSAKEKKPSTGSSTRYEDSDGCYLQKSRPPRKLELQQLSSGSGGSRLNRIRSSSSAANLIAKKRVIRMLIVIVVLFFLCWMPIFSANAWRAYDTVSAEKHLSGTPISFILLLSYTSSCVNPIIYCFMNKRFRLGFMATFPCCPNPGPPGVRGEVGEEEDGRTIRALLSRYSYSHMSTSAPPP
As to the kind of experiment: Inhibition of CCK-8 evoked intracellular calcium release in CHO cells stably transfected with rat CCKAR. It is filed as cell-based. Here is the method:
The activity of peptides from the CCKAR transmembrane domain were tested in transfected CHO cells that stably express rat […] et al. (1997), J. Biol. Chem. 272: 14817-14824). Sulfated cholecystokinin octapeptide was the CCKAR agonist. Determination of intracellular calcium release was performed as described in example 1 above. None of CCKAR-derived peptides served as antagonists of chemokine receptors and none could inhibit HIV-1 infection. The activity of the antagonists in inhibiting signaling through the receptor was compared to the ability to prevent agonist binding (Table 4). Inhibition of signaling was assessed in CCK-8 evoked intracellular calcium release in FURA-2/AM treated CHO cells stably transfected with rat […], et al. (1997) J. Biol. Chem. 272:14817). Inhibition of ligand binding was measured with the use of a fluorescent agonist, rhodamine green CCK-8 (RG-CCK-8) and quantitative confocal laser scanning microscopy (Tarasova, et al. (1997) J. Biol. Chem. 272:14817). Peptides derived from the first, second, and sixth transmembrane domains inhibited CCK-induced signaling through the CCKAR receptor. […] Table 4. The activity of CCKAR-derived TM peptides in inhibition of CCK-8 -induced intracellular calcium release and RG-CCK-8 binding.
On the technique in general: A change in cytosolic calcium serves as a functional read-out for many receptors and channels.

Where a SMILES comes first, the peptide text is derived from it.

With `CSCC[C@H](NC(=O)[C@H](CC(C)C)NC(=O)[C@H](CC(=O)O)NC(=O)[C@H](CO)NC(=O)[C@@H](NC(=O)[C@H](C)NC(=O)[C@H](CC(C)C)NC(=O)[C@H](CO)NC(=O)[C@H](CC(C)C)NC(=O)[C@H](CC(C)C)NC(=O)[C@@H](N)Cc1ccccc1)C(C)C)C(=O)N[C@@H](CC(C)C)C(=O)N[C@@H](CS)C(=O)N[C@@H](CC(C)C)C(=O)N[C@@H](Cc1ccccc1)C(=O)N[C@@H](CS)C(=O)N[C@@H](CCSC)C(=O)N1CCC[C@H]1C(=O)N[C@@H](Cc1ccccc1)C(=O)N[C@@H](CC(N)=O)C(=O)N[C@@H](CC(C)C)C(=O)N1CCC[C@H]1C(=O)O` [CCKAR-2-1] (H-FLLSLAVSDLMLCLFCMPFNLP-OH), the “Concentration, required for inhibition of signaling” value (CCK-8-induced intracellular calcium release, CHO cells with rat CCKAR) is given as 2 µM. In addition, the “potency in inhibition of ligand signaling compared with binding” value (comparison of signaling and binding, Table 4) is “comparable potencies”.
